# Data published in patent US11992489B2, “Substituted tetrahydroquinoline compounds as indoleamine 2,3-dioxygenase inhibitors” (Merck Sharp & Dohme LLC, priority 2018, dated 2024).
# pIC50: −log10 of the molar value.
# Target: IDO1 (Homo sapiens, UniProt P14902)
# Test: IDO1 cellular assay in HeLa cells stimulated with IFNγ
# Format: cell-based
# Details: IFNγ 100 ng/mL, 300 uM L-tryptophan, about 48 hours, fluorescence readout, read-out: HeLa Cell Potency, IC50
# Experimental: Biological Assays IDO1 Cellular Assay in HeLa Cells Stimulated with IFNγ
# HeLa cells were cultured in complete HeLa culture medium (90% EMEM, 10% heat-inactivated fetal bovine serum) and expanded to about 1×10^9 cells. The cells were then collected and frozen down at 1×10^7 cells/vial in 1 mL frozen medium (90% complete HeLa culture medium, 10% DMSO).
# Compounds to be tested were serially diluted in ten 3-fold steps in DMSO starting from 10 mM DMSO stocks in Echo low volume plate(s). Compound dilutions or DMSO alone were then dispensed from the dilution plate(s) into Greiner black 384-well assay plate(s) (catalog #781086, 50 nL/well) using an Echo 550 acoustic liquid handler (Labcyte).
# Frozen HeLa cells were thawed and transferred into HeLa assay medium (99% complete HeLa culture medium, 1% Pen/Strep) with 20 mL medium/vial of cells. The cells were spun down at 250 g in a table top centrifuge for 5 min and suspended in same volume of HeLa assay medium. The cells were then counted and adjusted to a density of 2×10^5 cells/mL in HeLa assay medium. Sterile L-tryptophan were added to the cells with final concentration of 300 uM L-tryptophan. A small aliquot (2 mL/plate) of HeLa cells were set aside and were not treated with IFNγ, to serve as the Max-E control.
# HeLa cells with and without IFNγ were dispensed to the respective wells of 384-well assay plates containing the compounds. The plates were incubated for about 48 hours at a 37° C., 5% CO2 incubator. Afterwards, 12 μL of 0.5 M methyl isonipecotate in dimethyl sulfoxide were added into each well and the plates were sealed and incubated at 37° C. without CO2 overnight. The plates were centrifuged for 1 min at 200×g. The resulting fluorescence was measured in a Spectramax plate reader (Molecular Devices) with a 400 nm excitation filter and a 510 nm emission filter.
# The fluorescence intensity of each well was corrected for the background observed in wells with non-IFNγ-treated cells and was expressed as a fraction of the intensity observed in wells of IFNγ-treated cells and DMSO only. Potencies were calculated by linear least squares fit to the four parameter logistic IC50 equation.
# Sequence of IDO1 (P14902 whole entry): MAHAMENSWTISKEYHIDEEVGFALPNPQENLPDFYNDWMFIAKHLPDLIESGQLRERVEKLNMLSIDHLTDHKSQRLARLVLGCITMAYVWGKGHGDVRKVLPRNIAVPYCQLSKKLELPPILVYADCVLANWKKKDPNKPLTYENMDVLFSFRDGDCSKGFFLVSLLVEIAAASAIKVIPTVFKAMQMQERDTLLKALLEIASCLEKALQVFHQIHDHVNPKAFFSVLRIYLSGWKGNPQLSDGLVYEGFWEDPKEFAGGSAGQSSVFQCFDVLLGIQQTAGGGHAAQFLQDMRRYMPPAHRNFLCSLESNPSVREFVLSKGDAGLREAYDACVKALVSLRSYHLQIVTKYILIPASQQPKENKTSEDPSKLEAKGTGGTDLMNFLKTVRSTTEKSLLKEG
row,SMILES,pIC50
1,"O=C(NC1(c2ccc3c(n2)CCCC3Nc2cccc(Cl)c2)CC1)c1ccc(F)cc1 (stereo not drawn) [Example 16, N-(1-(5-((3-chlorophenyl)amino)-5,6,7,8-tetrahydroquinolin-2-yl)cyclopropyl)-4-fluorobenzamide]",7.86
2,"Cc1ccncc1OC1CCCc2nc(C3(NC(=O)c4ccc(F)cc4)CC3)ccc21 (stereo not drawn) [Example 6, 4-fluoro-N-(1-(5((4-methylpyridin-3-yl)oxy)-5,6,7,8-tetrahydroquinolin-2-yl)cyclopropyl)benzamide]",8.00
3,"O=C(NC1(c2ccc3c(n2)CCCC3Oc2ccc(F)nc2)CC1)c1ccc(F)cc1 (stereo not drawn) [Example 9, 4-fluoro-N-(1-(5((6-fluoropyridin-3-yl)oxy)-5,6,7,8-tetrahydroquinolin-2-yl)cyclopropyL)benzamide]",7.61
4,"O=C(NC1(c2ccc3c(n2)CCCC3c2cncc(F)c2)CC1)c1ccc(F)cc1 (stereo not drawn) [Example 24, 4-Fluoro-N-(1-(5-(5-fluoropyridin-3-yl)-5,6,7,8-tetrahydroquinolin-2-yl)cyclopropyl)benzamide]",6.42
5,"O=C(NC1(c2ccc3c(n2)CCCC3Oc2ccc(F)nc2)CC1)c1ccc(F)cc1 (stereo not drawn) [Example 5, 4-fluoro-N-(1-(5((6-fluoropyridin-3-yl)oxy)-5,6,7,8-tetrahydroquinolin-2-yl)cyclopropyl)benzamide]",7.91
6,"CCC(NC(=O)c1ccc(F)cc1)c1ccc2c(n1)CCCC2c1cncc(F)c1 (stereo not drawn) [Example 25, 4-fluoro-N-(1-(5-(5-fluoropyridin-3-yl)-5,6,7,8-tetrahydroquinolin-2-yl)propyl)benzamide]",5.66
7,"Cc1ncc(OC2CCCc3nc(C4(NC(=O)c5ccc(F)cc5)CC4)ccc32)cn1 (stereo not drawn) [Example 13, 4-fluoro-N-(1-(5-((2-methylpyrimidin-5-yl)oxy)-5,6,7,8-tetrahydroquinolin-2-yl)cyclopropyl)benzamide]",7.35
8,"Cc1nccc([C@H]2CCCc3nc(C4(NC(=O)c5ccc(F)cc5)CC4)ccc32)n1 (single isomer, unassigned) [Example 23]",7.37
9,"Cc1ccncc1OC1CCCc2nc(C3(NC(=O)c4ccc(F)cc4)CC3)ccc21 (stereo not drawn) [Example 10, 4-fluoro-N-(1-(5-((4-methylpyridin-3-yl)oxy)-5,6,7,8-tetrahydroquinolin-2-yl)cyclopropyl)benzamide]",6.97
10,"Cc1nccc(C2CCCc3nc(C4(NC(=O)c5ccc(F)cc5)CC4)ccc32)n1 (stereo not drawn) [Example 21, 4-Fluoro-N-(1-(5-(2-methylpyrimidin-4-yl)-5,6,7,8-tetrahydroquinolin-2-yl)cyclopropyl)benzamide]",7.60
11,"Cc1ncc(OC2CCCc3nc(C4(NC(=O)c5ccc(F)cc5)CC4)ccc32)cn1 (stereo not drawn) [Example 15, 4-fluoro-N-(1-(5-((2-methylpyrimidin-5-yl)oxy)-5,6,7,8-tetrahydroquinolin-2-yl)cyclopropyl)benzamide]",6.89
12,"N#Cc1cccc(OC2CCCc3nc(C4(NC(=O)c5ccc(F)cc5)CC4)ccc32)c1 (stereo not drawn) [Example 12, N-(1-(5-(3-cyanophenoxy)-5,6,7,8-tetrahydroquinolin-2-yl)cyclopropyl)-4-fluorobenzamide]",8.24
13,"CN(C)c1ncc(OC2CCCc3nc(C4(NC(=O)c5ccc(F)cc5)CC4)ccc32)cn1 (stereo not drawn) [Example 14, N-(1-(5-((2-(dimethylamino)pyrimidin-5-yl)oxy)-5,6,7,8-tetrahydroquinolin-2-yl)cyclopropyl)-4-fluorobenzamide]",7.09
14,"CCC(NC(=O)c1ccc(F)cc1)c1ccc2c(n1)CCCC2c1cncc(C)c1 (stereo not drawn) [Example 27, 4-fluoro-N-(1-(5-(5-methylpyridin-3-yl)-5,6,7,8-tetrahydroquinolin-2-yl)propyl)benzamide]",6.19
15,"O=C(NC1(c2ccc3c(n2)CCCC3Oc2cncc(Cl)c2)CC1)c1ccc(F)cc1 (stereo not drawn) [Example 7, N-(1-(5-((5-chloropyridin-3-yl)oxy)-5,6,7,8-tetrahydroquinolin-2-yl)cyclopropyl)-4-fluorobenzamide]",8.27
16,"O=C(NC1(c2ccc3c(n2)CCCC3OCC2CC2)CC1)c1ccc(F)cc1 (single isomer, unassigned) [Example 19, N-(1-(5-(cyclopropylmethoxy)-5,6,7,8-tetrahydroquinolin-2-yl)cyclopropyl)-4-fluorobenzamide]",7.18
17,"O=C(NC1(c2ccc3c(n2)CCCC3OCC2CC2)CC1)c1ccc(F)cc1 (stereo not drawn) [Example 18, N-(1-(5-(cyclopropylmethoxy)-5,6,7,8-tetrahydroquinolin-2-yl)cyclopropyl)-4-fluorobenzamide]",7.23

# More lines, in order of rising pIC50, values ahead:
row,pIC50,SMILES
1,5.85,"Cc1ncc(C2CCCc3nc(C4(NC(=O)c5ccc(F)cc5)CC4)ccc32)cn1 (stereo not drawn) [Example 30, 4-fluoro-N-(1-(5-(2-methylpyrimidin-5-yl)-5,6,7,8-tetrahydroquinolin-2-yl)cyclopropyl)benzamide]"
2,6.07,"CCC(NC(=O)c1ccc(F)cc1)c1ccc2c(n1)CCCC2c1cncc(C(F)(F)F)c1 (stereo not drawn) [Example 29, 4-fluoro-N-(1-(5-(5-(trifluoromethyl)pyridin-3-yl)-5,6,7,8-tetrahydroquinolin-2-yl)propyl)benzamide]"
3,6.67,"O=C(NC1(c2ccc3c(n2)CCCC3c2cncc(C(F)(F)F)c2)CC1)c1ccc(F)cc1 (stereo not drawn) [Example 28, 4-fluoro-N-(1-(5-(5-(trifluoromethyl)pyridin-3-yl)-5,6,7,8-tetrahydroquinolin-2-yl)cyclopropyl)benzamide]"
4,6.74,"Cc1cncc(C2CCCc3nc(C4(NC(=O)c5ccc(F)cc5)CC4)ccc32)c1 (stereo not drawn) [Example 26, 4-fluoro-N-(1-(5-(5-methylpyridin-3-yl)-5,6,7,8-tetrahydroquinolin-2-yl)cyclopropyl)benzamide]"
5,7.02,"O=C(NC1(c2ccc3c(n2)CCCC3OCC2CC2)CC1)c1ccc(F)cc1 (single isomer, unassigned) [Example 20, N-(1-(5-(cyclopropylmethoxy)-5,6,7,8-tetrahydroquinolin-2-yl)cyclopropyl)-4-fluorobenzamide]"
6,7.38,"Cc1nccc([C@@H]2CCCc3nc(C4(NC(=O)c5ccc(F)cc5)CC4)ccc32)n1 (single isomer, unassigned) [Example 22]"
7,7.42,"O=C(NC1(c2ccc3c(n2)CCCC3Nc2cccc(Cl)c2)CC1)c1ccc(F)cc1 (stereo not drawn) [Example 17, N-(1-(5-((3-chlorophenyl)amino)-5,6,7,8-tetrahydroquinolin-2-yl)cyclopropyl)-4-fluorobenzamide]"
8,8.03,"CN(C)c1ncc(OC2CCCc3nc(C4(NC(=O)c5ccc(F)cc5)CC4)ccc32)cn1 (single isomer, unassigned) [Example 4, N-(1-(5-((2-(dimethylamino)pyrimidin-5-yl)oxy)-5,6,7,8-tetrahydroquinolin-2-yl)cyclopropyl)-4-fluorobenzamide]"
9,8.40,"O=C(NC1(c2ccc3c(n2)CCCC3Oc2cncc(Cl)c2)CC1)c1ccc(F)cc1 (stereo not drawn) [Example 11, N-(1-(5-((5-chloropyridin-3-yl)oxy)-5,6,7,8-tetrahydroquinolin-2-yl)cyclopropyl)-4-fluorobenzamide]"
10,8.67,"N#Cc1cccc(OC2CCCc3nc(C4(NC(=O)c5ccc(F)cc5)CC4)ccc32)c1 (stereo not drawn) [Example 8, N-(1-(5-(3-cyanophenoxy)-5,6,7,8-tetrahydroquinolin-2-yl)cyclopropyl)-4-fluorobenzamide]"
